Laboratory results taken from patent US20250136641A1, “PEPTIDES AND COMPOSITIONS FOR USE IN COSMETICS, FOOD AND MEDICINE” (priority 2022, published 2025).
Ends that are not written are not given here.

How the values were obtained:
TRF1 [1] = assay: TRF1 levels in CHA9.3 cells (immunofluorescence); assay type: cell-based; conditions: 0.125 mg/mL peptide, 24-hour incubation, vs DMSO control
Nrf2 = assay: Subcellular localization of Nrf2 in HEKa cells (immunofluorescence); assay type: cell-based, human; conditions: 0.01 or 0.05 mg/mL peptide, 24 hours, vs untreated cells
HDFa73 (HDFa from adult) = assay: Telomere length in HDFa cells (qPCR); assay type: cell-based, human; conditions: 48 hours
[2] = system: inflammation-related miRNAs; assay: Expression of inflammation-related miRNAs (RT-qPCR) in HEKa cells; assay type: cell-based, human; conditions: 0.01 mg/mL peptide, 24 h, vs untreated basal sample
[3] = system: inflammation-related genes; assay: Expression of inflammation-related genes (RT-qPCR) in HEKa cells; assay type: cell-based, human; conditions: 0.01 mg/mL peptide, vs untreated basal sample
TLR2 = TLR2 levels in human epidermal keratinocytes after IFNγ (ELISA); assay type: cell-based
catalase = assay: Levels or synthesis of catalase enzyme in HEKa cells (ELISA); assay type: cell-based, human; conditions: 24 hours
53BP1 = assay: DNA damage (53BP1 foci) under oxidative stress in HEKa cells; assay type: cell-based, human; conditions: 100 μM H2O2, 0.01 or 0.05 mg/mL peptide, vs cells treated only with H2O2
IL-8 = IL-8 secretion by HaCaT keratinocytes (ELISA), with or without IFNγ; assay type: cell-based, human
TRF1 [4] = assay: TRF1 foci per cell in HEKa cells (immunofluorescence); assay type: cell-based, human; conditions: basal condition, 0.005 mg/mL peptide, vs untreated

For GYYELND-NH2 [SEQ ID NO: 2-NH2], the TRF1 intensity (TRF1 [1]) was “increase in TRF1”, the “Nrf2 translocation into the nuclei” value (Nrf2) was “Nrf2 translocation from the cytoplasm to the nuclei in a concentration dependent manner” and the “telomeres longer than untreated HDFa73” value (HDFa73 (HDFa from adult); 0.005 mg/mL peptide) was 17%. For the same substance, the “telomeres longer than untreated HDFa73” value (HDFa73 (HDFa from adult); 0.01 mg/mL peptide) was 30%, the miR-21-5p expression [2] was “upregulate” and the miR-146a-5p expression [2] was “upregulate”. For the same substance, the HMOX1 gene expression ([3]; 6 h) was “upregulation”, the IRAK3 gene expression ([3]; 6 h) was “upregulation” and the TNFAIP3 gene expression ([3]; 6 h) was “upregulation”. For the same substance, the TOLLP gene expression ([3]; 6 h) was “upregulation”, the CXCL8 gene expression ([3]; 24 h) was “downregulated” and the IL1B gene expression ([3]; 24 h) was “downregulated”. For the same substance, the IL6 gene expression ([3]; 24 h) was “downregulated”, the MMP3 gene expression ([3]; 24 h) was “downregulated” and the NFKB1 gene expression ([3]; 24 h) was “downregulated”. The NQO1 gene expression ([3]; 24 h) was “upregulated”, the TLR2 gene expression ([3]; 24 h) was “downregulated” and the TNF gene expression ([3]; 24 h) was “downregulated”. The “decrease in levels of TLR2” value (TLR2; HEKa cells after IFNγ, highest peptide concentration (0.05 mg/mL), 24 hours) was 19%, the “levels of TLR2” value (TLR2; HEKa cells, 24 hours 10 ng/mL IFNγ, then 0.01 or 0.05 mg/mL peptide for 24 hours) was “lower the levels of TLR2 after exposure to IFNγ in a dose dependent-manner” and the levels of catalase (catalase; HEKa cells, 0.005, 0.01 or 0.05 mg/mL peptide, catalase/total protein vs basal) was “increase the levels of catalase in a dose-dependent manner”. The “increase in levels of catalase” value (catalase; HEKa cells, highest concentration (0.05 mg/mL), vs basal) was 47%, the “53BP1 foci per cell” value (53BP1) was “decrease in 53BP1 foci” and the “secretion of IL-8 under inflammatory conditions” value (IL-8; 48 hours, 0.005, 0.01 or 0.05 mg/mL together with IFNγ at 10 ng/mL, compared to positive control (IFNγ alone)) was “decrease, in a dose-dependent manner”. For the same substance, the “secretion of IL-8 under basal conditions” value (IL-8; without IFNγ, all concentrations tested (SEQ ID NO: 2-NH2 0.005, 0.01, 0.05 mg/mL; SEQ ID NO: 3-NH2 0.01, 0.05 mg/mL), vs untreated cells) was “decreased the secretion of IL-8 in a dose-dependent manner but at a lower degree that under inflammatory conditions” and the “TRF1 foci per cell” value (TRF1 [4]) was “increase in TRF1”.
